Laboratory results from PMC8216447, “Factors affecting the buccal delivery of deformable nanovesicles based on insulin–phospholipid complex: an in vivo investigation” (Drug Delivery, 2020).

Test system: normal rabbits
Test: In vivo hypoglycemic effect, rabbit esophageal ligation model
Settings: insulin solution 3 mg/mL
Method: The relative pharmacological bioactivity of insulin delivered via the transmucosal route by IPC-DNVs in different drug doses, delivery sites, ligation times, drug concentrations, sizes, and deformabilities was evaluated in normal rabbits by assessing the hypoglycemic effects. […] After fasting for 2 h, the rabbits were weighed and anesthetized with pentobarbital (2%, 50 mg/kg) through the ear margin vein. During anesthesia, the animals were restrained in a supine position to a board. The esophagus was surgically ligated to prevent swallowing. The drug solution for buccal administration (oral mucosa) was divided into four parts; two parts for administration via sublingual mucosa, and two parts for administration via left and right buccal mucosa. The sublingual mucosa and the buccal mucosa groups were administered only to the sublingual mucosa or buccal mucosa. After administration of the drug solution for 30 min (except the group with ligation time of 15 min), the esophagus was untied, and the response of the animals was observed. Blood samples were collected from the ear veins at predetermined time intervals (0, 0.5, 1, 1.5, 2, 2.5, 3, 3.5, 4, 4.5, 5, and 6 h) after DNVs administration and blood glucose levels were measured using a Blood Analyzer (ONETOUCH Ultra; Johnson & Johnson, New Brunswick, NJ, USA). […]

## Recombinant human insulin [insulin solution]
1 IU/kg, subcutaneous administration
  hypoglycemic effect: evident
10 IU/kg, buccal administration (control)
  glucose levels within 6 h after buccal administration: barely changed
